# Experimental data published in paper PMC3958426, “Prolonged Calcitonin Receptor Signaling by Salmon, but Not Human Calcitonin, Reveals Ligand Bias” (PLoS ONE, 2014).
# Tests used:
# [1] = target: T1, human calcitonin receptor (CT(a)R), U2OS CALCR membranes (Homo sapiens, UniProt P30988); assay: Ligand association on isolated U2OS CALCR membranes; assay type: binding; details: ^125I ligand 0.25 nM; for association constant KON, membranes: room temperature (∼22°C), 20 mM HEPES, 1 mM CaCl2, 5 mM MgCl2, nonspecific with 250 nM unlabeled sCT, triplicate, mean ± SEM; for time to plateau of specific binding, membranes: ∼22°C
# T1 construct: host or cells: U2OS (PathHunter U2OS CALCR β-arrestin cell line)
# T1 sequence (P30988 25-474): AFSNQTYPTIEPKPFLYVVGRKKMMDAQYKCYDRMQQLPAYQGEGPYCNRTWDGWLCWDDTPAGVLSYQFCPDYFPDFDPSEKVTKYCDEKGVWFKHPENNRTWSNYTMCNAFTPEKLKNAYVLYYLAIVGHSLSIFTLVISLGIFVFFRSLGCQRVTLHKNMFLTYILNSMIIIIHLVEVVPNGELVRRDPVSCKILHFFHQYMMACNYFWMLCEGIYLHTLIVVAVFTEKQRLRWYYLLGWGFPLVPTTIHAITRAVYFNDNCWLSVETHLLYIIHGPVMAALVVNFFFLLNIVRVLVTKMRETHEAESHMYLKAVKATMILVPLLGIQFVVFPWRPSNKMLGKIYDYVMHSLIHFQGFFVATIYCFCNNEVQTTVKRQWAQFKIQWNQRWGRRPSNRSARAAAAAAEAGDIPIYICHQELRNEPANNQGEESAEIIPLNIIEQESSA
# Experimental: The binding kinetics of ^125I-(Tyr 22)-sCT and ^125I-(Tyr 12)-hCT were assessed using isolated membranes from Cos-7 CT(a)R or U2OS CALCR. Concentration of radio-labeled ligand was 0.25 nM unless otherwise specified. Membranes were isolated and purified as previously described. Membrane protein content was determined with a NanoDrop 1000 (Thermo Scientific). In general, radio-labeled ligand and membrane were mixed in binding buffer (20 mM HEPES, 1 mM CaCl2, 5 mM MgCl2) with complete protease inhibitor (11836170001, Roche), each condition in triplicate, in 96-well plates and incubation at room temperature (∼22°C) with shaking. Ligand association: The radio-labeled ligand was incubated with the membrane and the membrane-bound radioactivity was determined as described above at specific time points 2½, 5, 10, 20, 40, 80 and 160 min. Nonspecific binding was determined at each time point with co-incubation of 250 nM unlabeled sCT. Ligand dissociation: The radio-labeled ligand and membrane were incubated for one hour to allow ligand-receptor saturation. Dissociation was monitored following the addition of 250 nM unlabeled sCT to prevent rebinding of dissociated radio-ligand. The membrane-bound radioactivity (total binding) was determined at time 0, 1, 2, 4, 6, 24, 48 and 72 h after the initiation of dissociation. Competitive ligand binding: The radio-labeled ligand and membrane were co-incubated with one of seven different concentrations of corresponding unlabeled ligand (1 μM sCT or hCT with a fivefold dilution row) for one hour. Post incubation sample extraction: The binding mixtures were transferred to 1.5 ml Eppendorf tubes and centrifuged at 17,000 g (4°C for 5 min). Membrane pellets were washed with cold binding buffer, resuspended and then re-centrifuged (17,000 g, 4°C for 5 min).
# (§1) Samples, resuspended pellet or solubilized cell membrane, were transferred to borosilicate tubes and bound radioactivity was measured using a 1470 Wallac Wizard Gamma Counter.
# [2] = target: T2, human calcitonin receptor (CT(a)R), U2OS CALCR cells (Homo sapiens, UniProt P30988); assay: Ligand association on live U2OS CALCR cells; assay type: binding; details: 37°C
# T2 construct: host or cells: U2OS (PathHunter U2OS CALCR β-arrestin cell line)
# T2 sequence (P30988 25-474): T1 sequence (P30988 25-474)
# Experimental: 15,000 U2OS CALCR cells/well were seeded into 96 well culture plates the day prior to the experiment. All cell based binding kinetics studies were made identical in terms of ‘hot’ and ‘cold’ ligand concentrations and incubation times to match membrane studies. Post incubation sample extraction: The binding mixture and cells were mixed in culture medium in triplicates in 96-well plates and incubated at 37°C. At the end of the incubation, the binding mixture was removed and cells were washed three times in PBS to remove residual unbound ligand. 200 μL 0.5 M NaOH was added to each well and cells were allowed to solubilize for at least 20 min.
# as §1
# CT(a)R = details: live cells; cited from earlier work
# Source text: The calcitonins (CT) are a group of evolutionary conserved 32 amino acid peptide hormones, which have been isolated from many different species over the last 50 years and divided into several distinct groups based on structure and sequence. The calcitonins bind to the calcitonin receptor (CT(a)R), which belongs to the class B subfamily of G-protein coupled receptors (GPCRs), [3]. […] […].
# amylin receptor (AMY-R) = details: isolated membranes; cited from earlier work
# Source text: (§2) The calcitonins (CT) are a group of evolutionary conserved 32 amino acid peptide hormones, which have been isolated from many different species over the last 50 years and divided into several distinct groups based on structure and sequence. The calcitonins bind to the calcitonin receptor (CT(a)R), which belongs to the class B subfamily of G-protein coupled receptors (GPCRs), [3].
# [3] = cited from earlier work
# Source text: as §2
"association constant KON, membranes [1]","time to plateau of specific binding, membranes [1] [min]","peak binding, live cells, ^125I-hCT vs ^125I-sCT [2]","specific binding after 180 min compared to 20 min, live cells ([2]; ^125I ligand 0.25 nM) [%]","time of maximal specific binding, live cells ([2]; ^125I ligand 0.25 nM) [min]","time to plateau of specific binding, live cells ([2]; ^125I ligand 0.25 nM) [min]","association constant KON, live cells ([2]; ^125I ligand 0.25 nM, triplicate, mean ± SEM)",Substance,reversibility of binding (CT(a)R),dissociation from the amylin receptor (amylin receptor (AMY-R)),duration of biological activity in vivo [3]
2.1±0.3×10^9 M^−1min^−1,~8,similar,< 20,20,,,^125I-(Tyr12)-hCT [^125I-hCT],fully reversible,,
3.1±0.5×10^9 M^−1min^−1,~8,similar,,,180,1.1±0.1×10^8 M^−1min^−1,^125I-(Tyr22)-sCT [^125I-sCT],,,
,,,,,,,"amylin (KCNTATCATQRLANFLVHSSNNFGAILSSTNVGSNTY; Islet amyloid polypeptide; UniProt P10997 34-70, looked up)",,fully reversible,
,,,,,,,davalintide,,dissociated very slowly,prolonged biological activity in vivo
